In patent US8513428B2, “Process for preparing atazanavir bisulfate and novel forms” (Bristol-Meyers Squibb Company, priority 2009, dated 2013):
Where a name gives a salt, the structure may show the parent alone.

Assay: moisture-sorption isotherms
Format: physicochemical
Conditions: in the range from 25 to 75% RH at 25° C.

COC(=O)N[C@H](C(=O)N[C@@H](Cc1ccccc1)[C@@H](O)CN(Cc1ccc(-c2ccccn2)cc1)NC(=O)[C@@H](NC(=O)OC)C(C)(C)C)C(C)(C)C [Form A, 1-[4-(Pyridin-2-yl)phenyl]-5(S)-2,5-bis{[N-(methoxycarbonyl)-L-tert-leucinyl]amino}-4-(S)-hydroxy-6-phenyl-2-azahexane, Bisulfate salt (Form A)]
moisture-sorption isotherms weight gain: about 0.1%
